Measured values: patent publication US7713923B2, “Self-assembling peptides incorporating modifications and methods of use thereof” (Massachusetts Institute of Technology, priority 2003, dated 2010)

How the values were obtained:
[1] = Circular dichroism (secondary structure); type: physicochemical; details: 25 μM peptide in water, room temperature, 195-250 nm
Experimental: Circular dichroism (DC). CD spectra were gathered on an Aviv model 202 spectropolarimeter. Samples were prepared by diluting stock peptide solutions in water (0.5%) to a working concentration of 25 μM. Samples were analysed at room temperature in a quartz cuvette with a path length of 0.3 cm and in the wavelength range 195-250 nm.
Circular dichroism. CD spectra were obtained for each peptide sequence to assess its secondary structure. The secondary structure identifies ordered structures within a polypeptide such as α-helices and β-sheets. […] (Havel, 1996).

[2] = test system: human aortic endothelial cells (HAEC); test: HAEC monolayer formation on peptide scaffolds; type: cell-based; set-up: key to HAEC monolayer formation, peptide content 100% / HAEC monolayer formation, Blending (9:1): +: Score for optimal monolayer formation and cell survival; −: Score for poor or none monolayer formation and cell survival; details: for HAEC monolayer formation, peptide blends: 9:1 RAD16-I:modified peptide, seeded subconfluent (~30%); for HAEC monolayer formation, Blending (9:1): RAD16-I: peptide sequence at a ratio 9:1 (v/v); for HAEC monolayer formation, peptide content 100%: scaffold of 100% peptide, 0.5% (w/v)
Experimental: Endothelial cell culture system. Peptide scaffolds (0.5% w/v) were prepared at 100% peptide sequence for RAD16-I or blended with RAD16-I at a radio of 9:1 (RAD16-I: peptide sequence, on a volume/volume basis) for the three other cases (YIG, RYV, and TAG). Each solution was filtered (0.2 μm, Acrodysc filters, 4192, PALL, MI), loaded (30 μl) on top of a cell culture chamber insert (10 mm diameter, 136935, Nalge Nunc International, IL), and allowed to form a layer (average thickness=600 μm). Phosphate Buffer Saline (PBS) (600 μl) was added at the bottom of the well to induce hydrogel formation, and the system was incubated at room temperature for 30 min. PBS was replaced with culture medium, which was then replaced with fresh medium. The scaffolds were incubated for 1 hour with endothelial cell growth media (EGM-2, Cambrex, MD) in a cell culture incubator at 37° C. with 5% CO2.
(§1) Meanwhile, human aortic endothelial cells (HAEC) (CC-2535, Cambrex, MD) that had been maintained under standard culture conditions (passage 5-6) were harvested at 80% confluence using trypsin and loaded on top of the preformed peptide scaffolds at a cell density of 8×10^4 cells/cm^2 and cultured in the cell culture incubator at 37° C. with 5% CO2. Cell attachment assays were performed one hour after the initial cell loading. To perform the assays, the covering media was removed, and unattached cells were counted on a hematocytometer. Cell counting was performed by mechanically disrupting the scaffold containing cells by pipetting up and down and then counting cells on a hematocytometer after performing Trypan blue (T 9906, Sigma, MO) exclusion assay staining to assess cell viability. In some experiments, for comparison, EC were cultured on inserts coated with Matrigel or collagen (1.5 mg/ml, i.e. 0.15%) according to standard protocols.
In a first experiment, we tested the ability of HAEC to attach and form a monolayer when seeded on various peptide scaffolds generated by self-assembly of the peptides following addition of PBS to a 0.5%(w/v) solution of the peptide in water. […] HAEC cultured in the presence of scaffolds generated from peptides incorporating the other biologically active peptide motifs either died or formed isolated clusters (FIGS. 9A-9G).
We therefore decided to blend the peptides incorporating biologically active motifs with the prototypic RAD16-I sequence in order to reduce the overall concentration of the biologically active motif presented to cells. We selected a volume/volume ratio of 9:1 (RAD16-I:modified peptide sequence comprising biologically active peptide motif, where peptides were dissolved at equal concentrations on a w/w basis) and generated peptide scaffolds from solutions in which the unmodified and modified peptides were present in this ratio.

[3] = test system: human aortic endothelial cells (HAEC); test: HAEC attachment assay on peptide scaffolds; type: cell-based; details: after one hour; modified peptides as 9:1 blends with RAD16-I
Experimental: as §1

[4] = test system: human aortic endothelial cells (HAEC); test: NO release determination (Griess method); type: cell-based; details: nitrite in culture supernatant; RAD16-I 100%, others 9:1 blend
Experimental: NO release determination. Nitric oxide (NO) release was estimated by measuring nitrites (NOx) by the Griess method. Briefly, the media was replaced after the third day of culture by new media without fetal bovine serum (FBS) or ascorbic acid. The next day, the media was used to analyze NO release using a commercially available kit (482702, Calbiochem, CA) following the manufacturer instructions. Each condition was tested in triplicate.

[5] = test system: PC12 cells, endothelial cells, heparin; details: cited from earlier work
chondrocytes = details: encapsulated cells; cited from earlier work

Secondary structure (CD) [1] | Compound | HAEC monolayer formation, peptide blends [2] | HAEC monolayer formation, Blending (9:1) [2] | HAEC monolayer formation, peptide content 100% [2] | HAEC attachment to the surface [3] [%] | nitric oxide (NO) release by HAEC [4] | Biological activity [5] | chondrocyte phenotype in hydrogel (chondrocytes) | HAEC monolayer formation, scaffold of 100% peptide ([2]; 0.5% (w/v) peptide, no blending)
β-sheet | Ac-RYVVLPRGGRADARADARADARADA-NH2 [RYV, AcN-RYVVLPR-GG-(RADA)4-CONH2] | readily supported monolayer formation | + | − | ~100 | inhibits NO release |  |  | 
β-sheet | Ac-TAGSCLRKFSTMGGRADARADARADARADA-NH2 [TAG, AcN-TAGSCLRKFSTM-GG-(RADA)4-CONH2] | readily supported monolayer formation | + | − | ~100 | promote NO release |  |  | 
β-sheet | CC(=O)N1CCC[C@H]1C(=O)N[C@@H](CC(=O)O)C(=O)N[C@@H](CO)C(=O)NCC(=O)N[C@@H](CCCNC(=N)N)C(=O)NCC(=O)NCC(=O)N[C@@H](CCCNC(=N)N)C(=O)N[C@@H](C)C(=O)N[C@@H](CC(=O)O)C(=O)N[C@@H](C)C(=O)N[C@@H](CCCNC(=N)N)C(=O)N[C@@H](C)C(=O)N[C@@H](CC(=O)O)C(=O)N[C@@H](C)C(=O)N[C@@H](CCCNC(=N)N)C(=O)N[C@@H](C)C(=O)N[C@@H](CC(=O)O)C(=O)N[C@@H](C)C(=O)N[C@@H](CCCNC(=N)N)C(=O)N[C@@H](C)C(=O)N[C@@H](CC(=O)O)C(=O)N[C@@H](C)C(N)=O [PDS, AcN-PDSGR-GG-(RADA)4-CONH2] |  | − | − |  |  |  |  | 
random coil | Ac-KAFDITYVRLKFGGRADARADARADARADA-NH2 [KAF, AcN-KAFDITYVRLKF-GG-(RADA)4-CONH2] |  | − | − |  |  |  |  | 
β-sheet | CC[C@H](C)[C@H](NC(=O)[C@H](Cc1ccc(O)cc1)NC(C)=O)C(=O)NCC(=O)N[C@@H](CO)C(=O)N[C@@H](CCCNC(=N)N)C(=O)NCC(=O)NCC(=O)N[C@@H](CCCNC(=N)N)C(=O)N[C@@H](C)C(=O)N[C@@H](CC(=O)O)C(=O)N[C@@H](C)C(=O)N[C@@H](CCCNC(=N)N)C(=O)N[C@@H](C)C(=O)N[C@@H](CC(=O)O)C(=O)N[C@@H](C)C(=O)N[C@@H](CCCNC(=N)N)C(=O)N[C@@H](C)C(=O)N[C@@H](CC(=O)O)C(=O)N[C@@H](C)C(=O)N[C@@H](CCCNC(=N)N)C(=O)N[C@@H](C)C(=O)N[C@@H](CC(=O)O)C(=O)N[C@@H](C)C(N)=O [YIG, AcN-YIGSR-GG-(RADA)4-CONH2] | readily supported monolayer formation | + | + | ~100 | promote NO release |  |  | able to support the formation of a monolayer

More lines, now with the values behind:

Compound | Secondary structure (CD) [1] | HAEC monolayer formation, peptide blends [2] | HAEC monolayer formation, Blending (9:1) [2] | HAEC monolayer formation, peptide content 100% [2] | HAEC attachment to the surface [3] [%] | nitric oxide (NO) release by HAEC [4] | Biological activity [5] | chondrocyte phenotype in hydrogel (chondrocytes) | HAEC monolayer formation, scaffold of 100% peptide ([2]; 0.5% (w/v) peptide, no blending)
CSRARKQAASIKVAVSADR |  |  |  |  |  |  | vessel formation |  | 
PDGSR |  |  |  |  |  |  | Cell adhesion |  | 
AcN-KLDLKLDLKLDL-CONH2 (Ac-KLDLKLDLKLDL-NH2) [KLD12] |  |  |  |  |  |  |  | retained their morphology and developed a cartilage-like, mechanically functional ECM rich in proteoglycans and type-II collagen | 
KAFDITYVRLKF |  |  |  |  |  |  | neurite outgrowth |  | 
